Assay results as given in patent US6620583B2, “Diagnostic screens for type 1 diabetes (IDDM)” (Boston Medical Center Corporation, priority 1998, dated 2003).

Columns and labels:
Assay type in all cases: cell-based, human
[1] = system: dermal fibroblasts from type I diabetic patients and matched controls; assay: Bradykinin-induced Ca2+ mobilization in fura-2 AM loaded fibroblasts (fluorescence spectrophotometry)
Method: The following examples describe novel findings upon which the present invention is based, at least in part. In particular, the present inventors have determined the effects of tumor necrosis factor alpha (TNF-α) treatment, and the diabetic environment (elevated glucose and fatty acid), on bradykinin-induced Ca^2+ mobilization in dermal fibroblasts from type I diabetic patients and matched controls. Fibroblasts were exposed to TNF-α (10 ng/ml) for up to 48 hours. Cells in suspension were then loaded with fura-2 acetoxymethyl ester, and bradykinin-induced Ca^2+ mobilization was measured using fluorescence spectrophotometry. […] With 24 hours of treatment, TNF-α-induced increments in peak bradykinin response were three-fold greater in diabetics than in controls (P<0.001).
Briefly, fibroblasts from 7 control and 10 diabetic donors (passages 7 to 30) were loaded with fura-2 AM and Ca^2+ mobilization in response to increasing concentrations of bradykinin was determined.
Briefly, paired flasks of cells were treated with TNF-α or left untreated. Fura-loaded cells were stimulated with 20 nM bradykinin and Ca^2+ mobilization was measured after 200 seconds. […] Fibroblasts were fura-2 AM loaded and Ca^2+ mobilization in response to increasing concentrations of bradykinin was determined. Each bar represents the mean of 14 to 33 separate determinations. In cells from both control and diabetic donors, TNF-α treatment augmented bradykinin induced Ca^2+ mobilization, although to a much greater extent in the diabetic donor. […] A small increase in the final equilibrium level of Ca^2+ was also seen consistently in the diabetic fibroblasts, but not in the controls.
The difference between control and diabetic cells can be seen more clearly through the bradykinin-induced increment between untreated and TNF-α treated. […] The change in peak response to bradykinin after TNF-α treatment was measures in fibroblasts from 7 control and 10 diabetic donors (3-8 separate experiments per donor). Each bar on the graph represents the mean of 14 to 34 separate determinations. […] ANOVA indicated an overall difference between control and diabetic (p<0.001), and specific differences between control and diabetic (Tukey p<0.001) at every bradykinin concentration above 1 nM.
Following the initial bradykinin induced peak of Ca^2+ mobilized from the ER, a sustained elevation of Ca^2+ occurs lasting for minutes. This sustained elevation in steady state Ca^2+ requires Ca^2+ entry from the extracellular space. Inappropriate elevation of Ca^2+ may lead to cell injury, apoptosis and death by activation of phospholipases, nucleases, and proteases (Cheung et al. (1986) N. Engl. J. Med. 314:1670-1676): thus, inappropriately elevated Ca^2+ in diabetic cells could be an important mechanisms for initiating diabetic pathology. Because of the important signal transducing properties of the sustained phase of the Ca^2+ response, the effects of TNF-α treatment on the steady state were examined. Briefly, fibroblasts from 7 control and 10 diabetic donors were exposed to 10 ng/ml TNF-α for 24 hours prior to bradykinin stimulation. The magnitude of the final steady state, or resting, intracellular [Ca^2+] following stimulation with bradykinin was determined. Each bar represents the mean of 14 to 34 separate determinations.
To determine whether the TNF-α induced increase in the peak bradykinin response was due to mobilization of Ca^2+ from intracellular stores, the Ca^2+ chelator EGTA was added prior to stimulation with bradykinin. FIG. 9 illustrates an experiment in which fibroblasts were treated with TNF-α for 24 hours or left untreated and the peak bradykinin response measured in the presence or absence of 2 mM EGTA. In these traces, 2 mM EGTA was added 10 seconds prior to stimulation with 200 nM bradykinin. The peak response was unaltered by EGTA in untreated and TNF-α treated cells. […]

[2] = system: fibroblasts from control and IDDM donors; assay: Thapsigargin-mediated emptying of intracellular Ca2+ stores in fura-loaded fibroblasts
Method: Thapsigargin, an irreversible inhibitor of the intracellular Ca^2+-ATPase, was used to determine if the TNF-α induced increment in peak bradykinin response was mediated by changes in the bradykinin signal transduction cascade, or was at the level of the intracellular Ca^2+ stores by irreversibly inhibiting their refilling FIG. 10 illustrates representative traces in which thapsigargin was added to untreated and TNF-α treated cells from control and IDDM donors. […] Potential mechanisms include alterations in modulation of Ca^2+-ATPase activity, changes in the ATPase itself or alterations in intraluminal signaling.

calreticulin = assay: Western blot of calreticulin expression in fibroblasts; conditions: 24 hr of TNF-α treatment
Description: Although TNF-α is known to turn on a multitude of genes in many different cell types, including the fibroblast (Tessier et al. (1993) Arthritis & Rheumatism 36:1528-1539; Rathanaswami et al. (1993) Arthritis & Rheumatism 36:1295-1304; Butler et al. (1994) Eur. Cytokine Network 5:441-448), it is possible that new protein synthesis is required to replete a component of the signal transduction apparatus that is constantly being turned over.

## O=C(O)CN(CCOCCOCCN(CC(=O)O)CC(=O)O)CC(=O)O [EGTA, reference compound]
[1]; 2 mM EGTA added 10 seconds prior to 200 nM bradykinin
  effect on final [Ca2+]i after bradykinin: eliminate the increase in final [Ca^2+]I
[1]; 2 mM EGTA added 10 seconds prior to 200 nM bradykinin, untreated and TNF-α treated cells
  effect on peak bradykinin response: unaltered

## CCCCCCCC/C=C\CCCCCCCC(=O)O [oleate, oleic acid]
[1]; 2 mM oleate with 11 mM glucose, 3 control and 4 diabetic donors, ANOVA p<0.001
  effect on peak bradykinin response (% of 5.6 mM glucose): significant effects
[1]; 2 mM oleic acid with 11 mM glucose, 3 control and 4 diabetic donors, p<0.001
  effect on steady state [Ca2+]i following bradykinin stimulation: significant effect

## C[C@@H]1C[C@@H]([C@H](O)CC2CC(=O)NC(=O)C2)C(=O)[C@@H](C)C1 [cycloheximide, reference compound]
[1]; protein synthesis inhibitor given with TNF-α
  effect on TNF-α induced increment in bradykinin response: blocked the TNF-α induced increment

## TNF-α
[2]; TNF-α treated versus untreated fibroblasts
  effect of TNF-α on thapsigargin-induced Ca2+ transients: greater in TNF-α treated fibroblasts than in untreated cells
[1]; 10 ng/ml TNF-α, 3 donors, not diminished by 48 hr
  treatment time at which maximum TNF-α induced increment in peak bradykinin response is achieved: ≤ 24 h
[1]; TNF-α 10 ng/ml for 24 hours, 7 control and 10 diabetic donors
  TNF-α induced increment in bradykinin-induced Ca2+ mobilization, diabetic cells versus control cells: 3 fold
[1]; TNF-α 10 ng/ml for 24 hours, control and diabetic donors, ANOVA p<0.001
  effect on steady state Ca2+ following the bradykinin response: significant elevations of steady state Ca^2+
[1]; TNF-α 10 ng/ml, 24 hour incubation, 20 nM bradykinin, control and diabetic donors
  effect on bradykinin-induced Ca2+ mobilization: potentiated bradykinin-induced Ca^2+ mobilization
[1]; TNF-α 10 ng/ml, bradykinin 1 nM to 1 μM, controls and diabetics
  treatment time from which increases in bradykinin-induced Ca2+ mobilization were observed: ≥ 1 h
[1]; TNF-α 10 ng/ml, p<0.05
  effect on basal intracellular Ca2+: significant increase in basal Ca^2+ in diabetic but not control cells
[1]; control donors, 48 hours FFA medium, TNF-α final 24 hours, data not shown
  effect on peak bradykinin response in control donors, diabetic milieu experiment: little or no effect
calreticulin
  effect on calreticulin expression: no change in calreticulin expression

## C/C=C(/C)C(=O)O[C@H]1C(C)=C2[C@H]([C@@H]1OC(=O)CCCCCCC)[C@@](C)(OC(C)=O)C[C@H](OC(=O)CCC)[C@@]1(O)[C@H]2OC(=O)[C@@]1(C)O [thapsigargin, reference compound]
[2]; untreated and TNF-α treated cells
  effect of thapsigargin on cytosolic Ca2+: transient rise of cytosolic Ca^2+
